Marks after values point to notes of the source that are not given here.
Experiments:
m-PGES1 mRNA = m-PGES1 mRNA in human PBMC with and without TNF-α, quantitative RT-PCR; assay type: cell-based
Experimental: (§1) Whole blood was collected from donors in EDTA-supplemented pouches at the Etablissement Français du Sang (Brest, France). The PBMC were isolated then from whole blood under sterile conditions within 36 hours after collection. Gradient density centrifugation was carried out on Ficoll (Eurobio). After washing in RPMI 1640 medium (Eurobio), cells were suspended in RPMI 1640 medium supplemented with 10% heat-inactivated fetal calf serum (Eurobio), 2 mM glutamine (D. Dutscher), 100 U of penicillin/ml (D. Dutscher), and 100 μg of streptomycin/ml (D. Dutscher). Monocytes were selected by plastic adherence for 1 h and approximately 10^7 cells were plated in 6-well tissue culture plates (3 mL medium per well). All incubations were performed in a humidified incubator at 37° C. and 5% CO2. Cells were recovered and dispersed in 2 ml fresh incubation medium supplemented with either 7β-hydroxyEPIA, 7β-hydroxy-DHEA, or 7α-hydroxy-DHEA (in 20 μL ethanol) in the presence or absence of 0.01 μg/mL TNF-α (Sigma-Aldrich). Control incubations contained 20 μl ethanol but no steroid. Supernatants were collected after 4 h and 24 hours incubations for measurement of their PG contents and cells were used for subsequent RNA isolation. A single step extraction method using the Trizol Reagent (Invitrogen, Cergy-Pontoise, France) provided total RNA.
cDNAs were synthesized from TURBO DNase I—treated RNA (Ambion, Huntingdon, UK) using the Superscript first strand synthesis system kit (Invitrogen). RT-PCR amplification mixtures (50 μL) contained 2.5× RealMaster Mix/20×SYBR solution (11.25 μL) (Eppendorf, Le Pecq, France) and 200 nM forward and reverse primers. Reactions were run on a RealPlex ep gradient S mastercycler (Eppendorf). The cycling conditions were 10 minutes at 95° C. and 45 cycles at 95° C., 55° C. and 68° C. for 15 seconds, 30 seconds and 30 seconds, respectively. Each assay included a standard curve of four serial dilution points of control cDNA. The HPRT1 housekeeping gene was used for quantification. All oligonucleotide primers (Table 2) were synthesized by Genecust/Distribio (Evry, France). The specificity of the amplified product was monitored by examining the melting curve of the product and confirmed by analysis on agarose gel electrophoresis.
(§2) All assays were carried out in triplicate and results were plotted as mean±S.E.M. One-way analysis of variance was performed followed by Duncan's multiple range tests in order to compare the differences between groups. Differences were considered statistically significant when p<0.05.

human PBMC = experiment: PG levels (PGE2, PGD2, 15d-PGJ2) in culture medium of human PBMC cultured with and without TNF-α, EIA (Example 3); assay type: cell-based
Experimental: as §1
Commercially available EIA kits were used for the determination of PGE2 levels (Oxford Biomedical Research, UK) and 15d-PGJ2 levels (Assay designs, Euromedex, France) in culture media. Measurement of PGD2 levels was obtained using the prostaglandin D2-MOX EIA kit (Cayman Chemical, Euromedex). In this case, and prior to assay, the fresh samples were immediately treated with the MOX-HCl reagent, which converted PGD2 into PGD2-MOX, thus preventing any further chemical degradation.
as §2

[1] = 100 nM + TNF-α (10 ng/mL), 24 h

## CC12CCC3C(C1CCC2=O)[C@@H](O)C[C@H]1C[C@@H](O)CCC31C (stereo partly drawn) [Compound 7β-OH-EPIA, 7β-hydroxy-EPIAndrosterone]
m-PGES1 mRNA; 1 nM + TNF-α (10 ng/mL), 4 h
  mPGES1 (mRNA), mRNA production relative to controls: 1.11 ± 0.235
m-PGES1 mRNA; 1 nM + TNF-α (10 ng/mL), 24 h
  mPGES1 (mRNA), mRNA production relative to controls: 21.6 ± 4.28^
m-PGES1 mRNA; 1 nM, 4 h, without TNF-α
  mPGES1 (mRNA), mRNA production relative to controls: 0.76 ± 0.053^b
m-PGES1 mRNA; 1 nM, 24 h, without TNF-α
  mPGES1 (mRNA), mRNA production relative to controls: 1.77 ± 0.324^a
m-PGES1 mRNA; 10 nM + TNF-α (10 ng/mL), 4 h
  mPGES1 (mRNA), mRNA production relative to controls: 1.15 ± 0.183
m-PGES1 mRNA; 10 nM + TNF-α (10 ng/mL), 24 h
  mPGES1 (mRNA), mRNA production relative to controls: 6.29 ± 1.131^d
m-PGES1 mRNA; 10 nM, 4 h, without TNF-α
  mPGES1 (mRNA), mRNA production relative to controls: 0.94 ± 0.067
m-PGES1 mRNA; 10 nM, 24 h, without TNF-α
  mPGES1 (mRNA), mRNA production relative to controls: 3.61 ± 0.662^a
m-PGES1 mRNA; 100 nM + TNF-α (10 ng/mL), 4 h
  mPGES1 (mRNA), mRNA production relative to controls: 1.29 ± 0.323
m-PGES1 mRNA; [1]
  mPGES1 (mRNA), mRNA production relative to controls: 6.79 ± 2.898^d
m-PGES1 mRNA; 100 nM, 4 h, without TNF-α
  mPGES1 (mRNA), mRNA production relative to controls: 0.71 ± 0.058^b
m-PGES1 mRNA; 100 nM, 24 h, without TNF-α
  mPGES1 (mRNA), mRNA production relative to controls: 2.63 ± 0.475^a
Human PBMC; 1 nM + TNF-α (10 ng/mL), 4 h
  15d-PGJ2: 0.37 ± 0.029 ng/mL
  PGD2: 0.22 ± 0.082 ng/mL
  PGE2: 0.50 ± 0.012 ng/mL
Human PBMC; 1 nM + TNF-α (10 ng/mL), 24 h
  15d-PGJ2: 2.18 ± 0.183^c ng/mL
  PGD2: 0.47 ± 0.013^d ng/mL
  PGE2: 0.70 ± 0.001^b ng/mL
Human PBMC; 1 nM, 4 h, without TNF-α
  15d-PGJ2: 0.39 ± 0.080 ng/mL
  PGD2: 0.18 ± 0.005 ng/mL
  PGE2: 0.26 ± 0.011 ng/mL
Human PBMC; 1 nM, 24 h, without TNF-α
  15d-PGJ2: 0.85 ± 0.014^a ng/mL
  PGD2: 0.21 ± 0.012^a ng/mL
  PGE2: 0.26 ± 0.015 ng/mL
Human PBMC; 10 nM + TNF-α (10 ng/mL), 4 h
  15d-PGJ2: 0.40 ± 0.007 ng/mL
  PGD2: 0.22 ± 0.010 ng/mL
  PGE2: 0.49 ± 0.021 ng/mL
Human PBMC; 10 nM + TNF-α (10 ng/mL), 24 h
  15d-PGJ2: 2.77 ± 0.021^c ng/mL
  PGD2: 0.42 ± 0.009^d ng/mL
  PGE2: 0.80 ± 0.012^b ng/mL
Human PBMC; 10 nM, 4 h, without TNF-α
  15d-PGJ2: 0.39 ± 0.010 ng/mL
  PGD2: 0.19 ± 0.020 ng/mL
  PGE2: 0.23 ± 0.022 ng/mL
Human PBMC; 10 nM, 24 h, without TNF-α
  15d-PGJ2: 0.91 ± 0.032^a ng/mL
  PGD2: 0.23 ± 0.001^a ng/mL
  PGE2: 0.23 ± 0.021 ng/mL
Human PBMC; 100 nM + TNF-α (10 ng/mL), 4 h
  15d-PGJ2: 0.37 ± 0.016 ng/mL
  PGD2: 0.23 ± 0.007 ng/mL
  PGE2: 0.42 ± 0.020 ng/mL
Human PBMC; [1]
  15d-PGJ2: 0.85 ± 0.019^ ng/mL
  PGD2: 0.40 ± 0.030^d ng/mL
  PGE2: 0.71 ± 0.012^b ng/mL
Human PBMC; 100 nM, 4 h, without TNF-α
  15d-PGJ2: 0.37 ± 0.018 ng/mL
  PGD2: 0.20 ± 0.013 ng/mL
  PGE2: 0.22 ± 0.020 ng/mL
Human PBMC; 100 nM, 24 h, without TNF-α
  15d-PGJ2: 1.70 ± 0.016^a ng/mL
  PGD2: 0.24 ± 0.031^a ng/mL
  PGE2: 0.24 ± 0.022 ng/mL

From patent US20130023504A1, “Modulation of Prostaglandin/Cyclooxygenase Metabolic Pathways” (HUNTER-FLEMING LIMITED, priority 2006, published 2013)
